From US20220395487A1, “RIG-I INNATE IMMUNE RECEPTOR ANTAGONISTS AND METHODS OF USING SAME” (YALE UNIVERSITY, priority 2019, published 2022)

Assays:
RIG-I [1] = biological target: T1, RIG-I (Homo sapiens, UniProt O95786); test: qRT-PCR of IFN and ISG levels in A549 cells with endogenous RIG-I; type: cell-based; settings: SLR14 challenge, qRT-PCR normalized to HPRT
T1 sequence (O95786 1-925): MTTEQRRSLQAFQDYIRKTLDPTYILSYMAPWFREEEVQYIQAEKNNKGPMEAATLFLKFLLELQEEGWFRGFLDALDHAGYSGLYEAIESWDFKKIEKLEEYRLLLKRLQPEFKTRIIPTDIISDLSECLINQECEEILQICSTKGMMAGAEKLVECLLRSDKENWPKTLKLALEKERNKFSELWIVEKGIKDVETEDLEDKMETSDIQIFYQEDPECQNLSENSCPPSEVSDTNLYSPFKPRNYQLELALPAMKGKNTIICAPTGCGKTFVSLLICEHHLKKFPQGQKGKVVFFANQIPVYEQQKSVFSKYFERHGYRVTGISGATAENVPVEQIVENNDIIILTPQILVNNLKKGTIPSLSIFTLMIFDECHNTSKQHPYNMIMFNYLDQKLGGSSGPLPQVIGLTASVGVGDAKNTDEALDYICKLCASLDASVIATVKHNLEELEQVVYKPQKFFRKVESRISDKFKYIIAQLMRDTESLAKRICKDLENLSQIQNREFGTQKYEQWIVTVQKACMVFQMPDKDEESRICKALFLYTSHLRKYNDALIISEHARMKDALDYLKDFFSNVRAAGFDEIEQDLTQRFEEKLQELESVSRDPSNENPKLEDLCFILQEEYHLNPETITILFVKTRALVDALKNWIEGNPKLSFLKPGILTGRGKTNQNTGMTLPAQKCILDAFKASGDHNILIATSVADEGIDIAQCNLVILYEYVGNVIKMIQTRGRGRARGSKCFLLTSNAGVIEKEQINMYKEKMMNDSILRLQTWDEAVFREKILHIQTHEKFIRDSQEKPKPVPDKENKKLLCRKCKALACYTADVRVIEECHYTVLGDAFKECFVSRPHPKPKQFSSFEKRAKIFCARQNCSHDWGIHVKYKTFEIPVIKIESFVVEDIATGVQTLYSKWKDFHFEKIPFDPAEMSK
Method: In the second assay, inhibition of RIG-I that is endogenously expressed in A549 cells was evaluated by monitoring IFN and ISG levels by qRT-PCR. A549 cells were propagated in T75 flasks containing Dulbecco's Modified Eagle Medium, DMEM, (Life Technologies) supplemented with 10% heat-inactivated fetal bovine serum (Hyclone) and Non-Essential Amino Acids (Life Technologies). For the assay, 0.5 ml of cells at 100,000 cells/ml was seeded in 24-well plates. After 24 h, DMEM growth media was replaced with media containing drug, as described above for the IFN induction assay using HEK293T cells. After 30 minutes, the cells were transfected with 1 μg of the synthetic stem-loop RNA (SLR14), using the Lipofectamine 2000 transfection reagent. After 5-6 hours, cells were harvested and total RNA was isolated using E.Z.N.A total RNA isolation kit (Omega Bio-tek), following the manufacturer's instructions. Genomic DNA contamination was removed by DNase I treatment (Omega Bio-tek) directly on the Mini column. Total RNA was reverse-transcribed into cDNA using iScript Reverse Transcription Supermix (Bio-RAD) according to the manufacturer's instructions. […] Each sample was analyzed in triplicate and normalized to HPRT expression. Gene expression quantification was performed according to the Livak ΔΔCt method.

RIG-I [2] = biological target: T1, RIG-I; test: NADH-coupled ATPase assay; type: biochemical; parameters: The native, full-length protein was expressed and purified using methods adapted from published protocols; SUMO (pET-SUMO vector; captured on Ni-NTA) (N, cleaved yes); made in house; host or cells: Rosetta II(DE3) Escherichia coli
Method: In this case, RIG-I was activated by a well-defined synthetic RNA hairpin duplex (SLR10-OH), which was added to a final concentration of 250 nM. A coupled assay mixture consisting of 1 mM NADH, 100 U/ml lactic dehydrogenase, 500 U/ml pyruvate kinase, 2.5 mM phosphoenol pyruvic acid was added to the sample. A 12-point serial dilution of the compound of interest was added in a DMSO vehicle such that DMSO concentrations were kept at a constant 2% over the entire drug dilution. The final concentration ranges for drug dilutions varied from compound to compound based on the potency of the small molecule in question. The dilutions covered ranges from 0 to as high as 100 μM (see association figures). Samples were incubated for at least 1 hour at RT. Reactions were initiated by the addition of a 1:1 ATP/MgCl2 mix to a final concentration of 5 mM.
The rate of ATP hydrolysis was determined indirectly by monitoring the conversion of NADH to NAD^+ that results in a loss of sample absorbance at 340 nm. Absorbance was measured over a 20 min time course using a sweeping read at 10 second intervals and a gain setting of 120 on a Biotek Synergy H1 Plate Reader. Mean kobs values were extrapolated for each time course and plotted against drug concentration, then fit to Eq. (1) to determine IC50 values. Each point was a based on two trials of three biological replicates with error bars representing the Standard deviation.

effect on IFN-β and ISG hRsad2 expression (RIG-I [1]): potent, dose-dependent effect
IC50 (RIG-I [2]; NADH-coupled ATPase assay, SLR10-OH activated, mean ± standard deviation, 3 measurements, read-out: IC50): 710 ± 20 nM
RIG-I ATPase inhibition, result in words (RIG-I [2]; SAR discussion of Table 1 compounds): nanomolar IC50 values
Structure (SMILES): CCC1(CC)C(=O)N=C2C1=C(OCc1ccccc1)C(=O)c1ccccc12 [RIG012, 4-Benzyloxy-3,3-diethyl-2H,3H,5H-benzo[g]indole-2,5-dione]
